Measurements as given in patent publication US20200060276A1, “THIAZOLE COMPOUND AND HERBICIDE” (OAT Agrio Co., Ltd., priority 2017, published 2020).

Columns and labels:
Type in all cases: in vivo
[1] = tested on: Echinochloa crus-galli (L.) P. Beauv. var. formosensis Ohwi; assay: Test for Herbicidal Effect in Flooding Treatment (#2), ECHDG at 2-2.5 leaf stage; settings: for ECHDG (2-2.5L) #2 herbicidal effect (growth inhibition rating 0-5): flooding treatment #2, 2-2.5 leaf stage; for ECHDG (2-2.5L) #2 herbicidal effect (growth inhibition grade): flooding treatment at 2-2.5 leaf stage, dose 0.2 kg/ha, visual observation on day 21
Method in brief: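 Flooded muddy soil was seeded with the weed, and at 2–2.5 leaf stage compound in acetone/Tween 80 water was dropped on the water surface at 0.2 kg/ha. Plants were kept in a glasshouse and scored visually on day 21 from 0 (<10% growth inhibition) to 5 (≥90% or complete withering).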

[2] = tested on: Monochoria vaginalis; assay: Test for Herbicidal Effect in Flooding Treatment (#1), MONVA; settings: for MONVA #1 herbicidal effect (growth inhibition rating 0-5): flooding treatment #1; for MONVA #1 herbicidal effect (growth inhibition grade): flooding treatment at seeding, dose 2 kg/ha, visual observation on day 21
Protocol: (#1) Test for Herbicidal Effect in Flooding Treatment: Styrol cups each having an opening diameter of 8 cm (about 52 cm^2) were respectively filled with soil (45 ml) which had been passed through a sieve (2 mm). Water (about 115 ml) was mixed with the soil such that the soil was flooded. After the soil stood still for 24 hours, Monochoria vaginalis, Echinochloa crus-galli (L.) P. Beauv. var. formosensis Ohwi, Cyperus difformis (umbrella sedge), and Scirpus juncoides were seeded. Each of the compounds of the present invention was dissolved in acetone, and the obtained product was then diluted with water containing Tween 80®. Each of the resultant chemical solutions was dropped on the entire surface of an associated one of treatment sections, so that each section was treated with 1 ml of the respective chemical solution (a dose of 2 kg/ha). After the treatment, the plants were grown in a glasshouse. On day 21, a survey was conducted on the herbicidal activity by visual observation, and evaluation was made according to the following criteria. 0: Growth inhibition effect is less than 10%. 1: Growth inhibition effect is equal to or greater than 10%, and less than 30%. 2; Growth inhibition effect is equal to or greater than 30%, and less than 50%. 3: Growth inhibition effect equal to or greater than 50%, and less than 70%. 4: Growth inhibition effect is equal to or greater than 70%, and less than 90%. 5: Growth inhibition effect is equal to or greater than 90%, or complete withering is achieved. ECHDG=Echinochloa crus-galli (L.) P. Beauv. var. formosensis Ohwi, MONVA=Monochoria vaginalis, SCIJU=Scirpus juncoides, CYMIC=Cyperus microiria.

[3] = tested on: Scirpus juncoides; assay: Test for Herbicidal Effect in Flooding Treatment (#1), SCIJU; settings: for SCIJU #1 herbicidal effect (growth inhibition rating 0-5): flooding treatment #1; for SCIJU #1 herbicidal effect (growth inhibition grade): flooding treatment at seeding, dose 2 kg/ha, visual observation on day 21
Method in brief: (§1)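 Flooded soil in cups was seeded 24 h after flooding, then treated with compound in acetone diluted with Tween 80-containing water, dropped onto the water surface at 2 kg/ha. After growth in a glasshouse, growth inhibition was scored visually on day 21 on a 0 (<10%) to 5 (≥90% or complete withering) scale.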

[4] = tested on: Echinochloa crus-galli (L.) P. Beauv. var. formosensis Ohwi; assay: Test for Herbicidal Effect in Flooding Treatment (#1), ECHDG; settings: for ECHDG #1 herbicidal effect (growth inhibition rating 0-5): flooding treatment #1; for ECHDG #1 herbicidal effect (growth inhibition grade): flooding treatment at seeding, dose 2 kg/ha, visual observation on day 21
Method in brief: as §1

Compound | ECHDG (2-2.5L) #2 herbicidal effect (growth inhibition rating 0-5) [1] | MONVA #1 herbicidal effect (growth inhibition rating 0-5) [2] | SCIJU #1 herbicidal effect (growth inhibition rating 0-5) [3] | ECHDG #1 herbicidal effect (growth inhibition rating 0-5) [4] | inhibition at 200 g/ha ([1]; Echinochloa crus-galli, 504 h, flooding treatment (#2), ECHDG at 2-2.5 leaf stage, dose of 0.2 kg/ha, day 21, visual observation, read-out: growth inhibition effect) | ECHDG (2-2.5L) #2 herbicidal effect (growth inhibition grade) [1] | MONVA #1 herbicidal effect (growth inhibition grade) [2] | SCIJU #1 herbicidal effect (growth inhibition grade) [3] | ECHDG #1 herbicidal effect (growth inhibition grade) [4]
[O-][S+](Cc1c(OCC(F)F)cccc1C(F)(F)F)c1ncc(Cl)s1 (centres unmarked) [Compound 1B-8] | 5 (Growth inhibition effect is equal to or greater than 90%, or complete withering is achieved) | 5 (Growth inhibition effect is equal to or greater than 90%, or complete withering is achieved) | 5 (Growth inhibition effect is equal to or greater than 90%, or complete withering is achieved) | 5 (Growth inhibition effect is equal to or greater than 90%, or complete withering is achieved) |  |  |  |  | 
[O-][S+](Cc1c(Cl)cccc1OCC(F)(F)F)c1ncc(Cl)s1 (centres unmarked) [Compound 1B-10] | 5 (Growth inhibition effect is equal to or greater than 90%, or complete withering is achieved) | 5 (Growth inhibition effect is equal to or greater than 90%, or complete withering is achieved) | 5 (Growth inhibition effect is equal to or greater than 90%, or complete withering is achieved) | 5 (Growth inhibition effect is equal to or greater than 90%, or complete withering is achieved) |  |  |  |  | 
[O-][S+](Cc1c(F)cccc1OCC(F)(F)C(F)F)c1ncc(Cl)s1 (centres unmarked) [Compound 1B-12] | 5 (Growth inhibition effect is equal to or greater than 90%, or complete withering is achieved) | 5 (Growth inhibition effect is equal to or greater than 90%, or complete withering is achieved) | 5 (Growth inhibition effect is equal to or greater than 90%, or complete withering is achieved) | 5 (Growth inhibition effect is equal to or greater than 90%, or complete withering is achieved) |  |  |  |  | 
[O-][S+](Cc1c(F)cccc1OCC(F)(F)C(F)F)c1ncc(Cl)s1 (centres unmarked) [Compound 1B-13] | 2 (Growth inhibition effect is equal to or greater than 30%, and less than 50%) | 5 (Growth inhibition effect is equal to or greater than 90%, or complete withering is achieved) | 5 (Growth inhibition effect is equal to or greater than 90%, or complete withering is achieved) | 5 (Growth inhibition effect is equal to or greater than 90%, or complete withering is achieved) |  |  |  |  | 
CC(c1c(F)cccc1OC(F)F)[S+]([O-])c1ncc(Cl)s1 (centres unmarked) [Compound 1B-16] | 3 (Growth inhibition effect equal to or greater than 50%, and less than 70%) | 5 (Growth inhibition effect is equal to or greater than 90%, or complete withering is achieved) | 5 (Growth inhibition effect is equal to or greater than 90%, or complete withering is achieved) | 5 (Growth inhibition effect is equal to or greater than 90%, or complete withering is achieved) |  |  |  |  | 
COc1cccc(Cl)c1C[S+]([O-])c1ncc(Br)s1 (centres unmarked) [Compound 1B-17] | 5 (Growth inhibition effect is equal to or greater than 90%, or complete withering is achieved) | 3 (Growth inhibition effect equal to or greater than 50%, and less than 70%) | 5 (Growth inhibition effect is equal to or greater than 90%, or complete withering is achieved) | 5 (Growth inhibition effect is equal to or greater than 90%, or complete withering is achieved) |  |  |  |  | 
[O-][S+](Cc1c(F)cccc1OC(F)F)c1ncc(Br)s1 (centres unmarked) [Compound 1B-19] | 5 (Growth inhibition effect is equal to or greater than 90%, or complete withering is achieved) | 5 (Growth inhibition effect is equal to or greater than 90%, or complete withering is achieved) | 5 (Growth inhibition effect is equal to or greater than 90%, or complete withering is achieved) | 5 (Growth inhibition effect is equal to or greater than 90%, or complete withering is achieved) |  |  |  |  | 
[O-][S+](Cc1c(Cl)cccc1OC(F)F)c1ncc(Br)s1 (centres unmarked) [Compound 1B-20] | 5 (Growth inhibition effect is equal to or greater than 90%, or complete withering is achieved) | 5 (Growth inhibition effect is equal to or greater than 90%, or complete withering is achieved) | 5 (Growth inhibition effect is equal to or greater than 90%, or complete withering is achieved) | 5 (Growth inhibition effect is equal to or greater than 90%, or complete withering is achieved) |  |  |  |  | 
[O-][S+](Cc1c(Cl)cccc1OC(F)(F)C(F)(F)F)c1ncc(Br)s1 (centres unmarked) [Compound 1B-24] | 5 (Growth inhibition effect is equal to or greater than 90%, or complete withering is achieved) | 5 (Growth inhibition effect is equal to or greater than 90%, or complete withering is achieved) | 5 (Growth inhibition effect is equal to or greater than 90%, or complete withering is achieved) | 5 (Growth inhibition effect is equal to or greater than 90%, or complete withering is achieved) |  |  |  |  | 
[O-][S+](Cc1c(F)cccc1OCC(F)(F)C(F)F)c1ncc(Br)s1 (centres unmarked) [Compound 1B-26] | 4 (Growth inhibition effect is equal to or greater than 70%, and less than 90%) | 5 (Growth inhibition effect is equal to or greater than 90%, or complete withering is achieved) | 5 (Growth inhibition effect is equal to or greater than 90%, or complete withering is achieved) | 5 (Growth inhibition effect is equal to or greater than 90%, or complete withering is achieved) |  |  |  |  | 
COc1cccc(Cl)c1CS(=O)(=O)c1ncc(Cl)s1 [Compound 1C-6] |  |  |  |  | ≥ 90% | 5 (Growth inhibition effect is equal to or greater than 90%, or complete withering is achieved) | 5 (Growth inhibition effect is equal to or greater than 90%, or complete withering is achieved) | 5 (Growth inhibition effect is equal to or greater than 90%, or complete withering is achieved) | 5 (Growth inhibition effect is equal to or greater than 90%, or complete withering is achieved)
COc1cccc(C(F)(F)F)c1CS(=O)(=O)c1ncc(Cl)s1 [Compound 1C-7] |  |  |  |  |  | 5 (Growth inhibition effect is equal to or greater than 90%, or complete withering is achieved) | 5 (Growth inhibition effect is equal to or greater than 90%, or complete withering is achieved) | 5 (Growth inhibition effect is equal to or greater than 90%, or complete withering is achieved) | 5 (Growth inhibition effect is equal to or greater than 90%, or complete withering is achieved)
CCOc1ccc(Cl)c(F)c1CS(=O)(=O)c1ncc(Cl)s1 [Compound 1C-32] |  |  |  |  |  | 5 (Growth inhibition effect is equal to or greater than 90%, or complete withering is achieved) | 5 (Growth inhibition effect is equal to or greater than 90%, or complete withering is achieved) | 5 (Growth inhibition effect is equal to or greater than 90%, or complete withering is achieved) | 5 (Growth inhibition effect is equal to or greater than 90%, or complete withering is achieved)
